In patent US12264158B2, “Protein kinase MKK4 inhibitors for promoting liver regeneration or reducing or preventing hepatocyte death” (HEPAREGENIX GMBH, priority 2018, dated 2025):

Key:
MKK4 = molecular target: T1, MKK4 (Homo sapiens, UniProt P45985); assay: KINOMEscan competition binding assay, MKK4 potency; conditions: concentration of 100 nM
T1 construct: S84/D399; host or cells: HEK-293
T1 sequence (P45985 84-399): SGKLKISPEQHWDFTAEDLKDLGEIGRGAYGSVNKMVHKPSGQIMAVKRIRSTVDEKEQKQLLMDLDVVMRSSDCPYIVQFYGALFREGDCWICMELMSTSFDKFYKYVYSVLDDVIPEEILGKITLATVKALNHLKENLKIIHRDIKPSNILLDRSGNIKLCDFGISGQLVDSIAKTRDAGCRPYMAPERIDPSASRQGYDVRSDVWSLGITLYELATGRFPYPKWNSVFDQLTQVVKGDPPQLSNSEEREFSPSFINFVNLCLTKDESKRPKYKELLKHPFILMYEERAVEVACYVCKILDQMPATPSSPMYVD
Method in brief: (§1)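 DNA-tagged kinases expressed in HEK-293 cells compete between test compound and immobilized ligand on blocked beads. Bound kinase is eluted and quantified by qPCR of the DNA tag. Compounds were tested at the indicated final concentrations, prepared from 10 mM stocks.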

MEKK2 = molecular target: T2, MEKK2 (Homo sapiens, UniProt Q9Y2U5); assay: Radiometric protein kinase assay, MEKK2; type: biochemical; conditions: substrate Casein, ATP 0.2 μM; read-out: MEKK2, potency derived from IC50-values
T2 construct: purchased ProQinase #0583-0000-1
T2 sequence (Q9Y2U5 1-619): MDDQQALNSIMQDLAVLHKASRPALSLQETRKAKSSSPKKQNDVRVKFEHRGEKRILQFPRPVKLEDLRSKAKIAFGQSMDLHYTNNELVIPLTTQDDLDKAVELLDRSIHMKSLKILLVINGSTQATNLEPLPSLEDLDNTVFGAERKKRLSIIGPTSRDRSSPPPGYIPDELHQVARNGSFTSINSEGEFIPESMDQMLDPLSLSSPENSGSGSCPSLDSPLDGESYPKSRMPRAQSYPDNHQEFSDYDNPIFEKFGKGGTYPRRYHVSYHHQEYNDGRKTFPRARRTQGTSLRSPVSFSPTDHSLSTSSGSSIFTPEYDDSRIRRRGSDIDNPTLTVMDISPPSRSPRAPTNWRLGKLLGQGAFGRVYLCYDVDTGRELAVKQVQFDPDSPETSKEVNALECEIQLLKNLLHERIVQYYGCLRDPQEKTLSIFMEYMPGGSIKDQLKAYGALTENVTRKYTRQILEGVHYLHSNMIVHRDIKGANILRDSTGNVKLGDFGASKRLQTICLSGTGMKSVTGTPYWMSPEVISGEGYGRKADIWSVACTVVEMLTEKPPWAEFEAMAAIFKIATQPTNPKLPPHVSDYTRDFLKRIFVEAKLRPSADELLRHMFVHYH
Method in brief: (§2)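 Kinase activity measured radiometrically: stopped reactions were captured on filter plates, washed with 150 mM H3PO4 and ethanol, and incorporated radioactivity counted by liquid scintillation.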

MKK7 = molecular target: T3, MKK7 (Homo sapiens, UniProt O14733); assay: KINOMEscan competition binding assay, selectivity against off-target MKK7; conditions: concentration of 100 nM
T3 construct: M1/R419; host or cells: HEK-293
T3 sequence (O14733 1-419): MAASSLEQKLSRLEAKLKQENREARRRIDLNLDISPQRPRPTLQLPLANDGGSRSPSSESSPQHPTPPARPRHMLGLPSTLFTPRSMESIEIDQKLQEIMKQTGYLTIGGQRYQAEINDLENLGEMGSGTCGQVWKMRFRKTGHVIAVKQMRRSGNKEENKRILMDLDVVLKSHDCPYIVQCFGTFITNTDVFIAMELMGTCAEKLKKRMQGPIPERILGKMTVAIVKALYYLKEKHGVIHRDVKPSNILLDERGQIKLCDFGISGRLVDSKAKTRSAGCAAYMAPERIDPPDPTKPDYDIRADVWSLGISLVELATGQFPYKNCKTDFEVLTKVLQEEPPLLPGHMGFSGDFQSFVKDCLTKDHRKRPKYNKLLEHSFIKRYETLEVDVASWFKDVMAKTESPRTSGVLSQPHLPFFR
Method in brief: as §1

MKK4 active = molecular target: T4, MKK4 active (Homo sapiens, UniProt P45985); assay: Radiometric protein kinase assay, MKK4 active; type: biochemical; conditions: substrate JNK1 KRKR, ATP 0.2 μM, read-out: MKK4, potency derived from IC50-values
T4 construct: purchased ProQinase #0948-0000-1
T4 sequence (P45985 1-399): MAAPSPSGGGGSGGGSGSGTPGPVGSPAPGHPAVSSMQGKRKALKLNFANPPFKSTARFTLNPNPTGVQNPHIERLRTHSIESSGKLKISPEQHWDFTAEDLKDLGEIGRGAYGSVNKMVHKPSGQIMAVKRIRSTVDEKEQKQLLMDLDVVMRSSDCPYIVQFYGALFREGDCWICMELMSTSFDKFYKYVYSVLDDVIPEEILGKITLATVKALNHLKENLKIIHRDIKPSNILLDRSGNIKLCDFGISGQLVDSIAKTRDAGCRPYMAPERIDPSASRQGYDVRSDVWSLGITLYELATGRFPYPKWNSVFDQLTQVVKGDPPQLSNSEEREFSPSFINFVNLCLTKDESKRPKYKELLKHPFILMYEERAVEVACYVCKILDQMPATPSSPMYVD
Method in brief: as §2

JNK1 = molecular target: T5, JNK1 (Homo sapiens, UniProt P45983); assay: KINOMEscan competition binding assay, selectivity against off-target JNK1; conditions: concentration of 100 nM
T5 construct: M1/Q384; host or cells: HEK-293
T5 sequence (P45983 1-384 isoform P45983-2): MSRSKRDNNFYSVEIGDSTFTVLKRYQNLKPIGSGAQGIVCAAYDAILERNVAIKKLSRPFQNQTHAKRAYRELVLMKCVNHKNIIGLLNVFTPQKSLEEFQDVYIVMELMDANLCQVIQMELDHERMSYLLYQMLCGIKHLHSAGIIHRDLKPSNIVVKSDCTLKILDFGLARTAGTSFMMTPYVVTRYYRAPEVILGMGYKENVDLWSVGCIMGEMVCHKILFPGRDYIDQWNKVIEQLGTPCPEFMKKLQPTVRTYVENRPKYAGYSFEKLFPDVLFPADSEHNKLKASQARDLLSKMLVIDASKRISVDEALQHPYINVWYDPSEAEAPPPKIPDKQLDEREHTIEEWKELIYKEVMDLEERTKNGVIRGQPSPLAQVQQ
Method in brief: as §1

MKK4-MEKK2 mix = molecular target: T6, MKK4-MEKK2 mix (Homo sapiens, UniProt P45985); assay: Radiometric protein kinase assay, MEKK2 dependent MKK4 activation (cascade); type: biochemical; conditions: substrate JNK1 KRKR, ATP 0.2 μM, read-out: Cascade, potency derived from IC50-values
T6 construct: MEKK2, recombinant, active: ProQinase product #0583-0000-1
T6 sequence (P45985 2-399): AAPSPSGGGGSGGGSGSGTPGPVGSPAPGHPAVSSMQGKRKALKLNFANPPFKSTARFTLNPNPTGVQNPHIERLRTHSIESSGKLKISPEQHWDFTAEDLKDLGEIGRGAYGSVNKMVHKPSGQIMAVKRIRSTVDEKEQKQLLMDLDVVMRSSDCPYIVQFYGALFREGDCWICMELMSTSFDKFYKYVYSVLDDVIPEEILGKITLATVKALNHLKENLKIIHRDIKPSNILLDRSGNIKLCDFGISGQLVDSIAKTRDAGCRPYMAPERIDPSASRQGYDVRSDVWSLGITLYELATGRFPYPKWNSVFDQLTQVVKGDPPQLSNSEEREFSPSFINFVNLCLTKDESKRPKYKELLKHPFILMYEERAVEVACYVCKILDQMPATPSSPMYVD
Method in brief: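 MKK4 (1 μM) was activated by MEKK2 (50 nM) in 50 mM HEPES pH 7.5, 50 mM NaCl, 3.8 mM MgCl2, 2.5 mM DTT and 10% glycerol with ATP, in the presence of compound at 1% final DMSO. Kinase activity was measured radiometrically by filter capture, H3PO4 washes and scintillation counting.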

BRaf = BRaf (Homo sapiens, UniProt P15056); assay: KINOMEscan competition binding assay, selectivity against off-target BRaf; conditions: concentration of 100 nM
BRaf, sequence (P15056 whole entry): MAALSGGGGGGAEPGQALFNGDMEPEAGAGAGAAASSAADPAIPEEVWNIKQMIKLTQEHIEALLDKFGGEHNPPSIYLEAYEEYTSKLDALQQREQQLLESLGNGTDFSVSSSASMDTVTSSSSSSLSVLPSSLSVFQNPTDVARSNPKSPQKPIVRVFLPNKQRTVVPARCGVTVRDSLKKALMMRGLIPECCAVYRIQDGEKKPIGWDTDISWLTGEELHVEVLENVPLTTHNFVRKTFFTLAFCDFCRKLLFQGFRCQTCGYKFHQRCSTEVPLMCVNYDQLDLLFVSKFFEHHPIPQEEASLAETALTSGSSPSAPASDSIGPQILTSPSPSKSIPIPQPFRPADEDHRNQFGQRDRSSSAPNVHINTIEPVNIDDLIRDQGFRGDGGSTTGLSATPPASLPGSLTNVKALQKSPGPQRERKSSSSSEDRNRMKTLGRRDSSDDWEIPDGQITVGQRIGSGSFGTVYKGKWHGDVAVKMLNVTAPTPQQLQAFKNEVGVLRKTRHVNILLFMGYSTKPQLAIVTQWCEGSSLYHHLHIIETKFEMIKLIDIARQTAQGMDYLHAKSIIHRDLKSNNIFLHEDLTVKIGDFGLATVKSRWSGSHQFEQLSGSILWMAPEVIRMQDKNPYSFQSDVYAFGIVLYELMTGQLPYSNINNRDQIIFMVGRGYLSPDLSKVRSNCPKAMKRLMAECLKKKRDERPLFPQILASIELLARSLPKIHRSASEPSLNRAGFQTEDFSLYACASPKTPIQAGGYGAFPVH
Method in brief: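 Competition binding: test compound competes with an immobilized ligand for DNA-tagged BRaf, and kinase captured on the ligand is quantified by qPCR of the DNA tag. Compounds from 10 mM stocks were tested at the indicated final concentrations.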

| SMILES | MKK4, residual percent of control binding (PoC) (MKK4) | IC50 (MEKK2) | Selectivity vs. MKK7, ratio PoC(MKK7)/PoC(MKK4) (MKK7) | IC50 (MKK4 active) | Selectivity vs. JNK1, ratio PoC(JNK1)/PoC(MKK4) (JNK1) | IC50 (MKK4-MEKK2 mix) | Selectivity vs. BRaf, ratio PoC(BRaf)/PoC(MKK4) (BRaf) |
| --- | --- | --- | --- | --- | --- | --- | --- |
| CCCS(=O)(=O)Nc1ccc(F)c(C(=O)c2n[nH]c3ncc(-c4cccc([N+](=O)[O-])c4)cc23)c1F [Example 32, N-(2,4-difluoro-3-(5-(3-nitrophenyl)-1H-pyrazolo[3,4-b]pyridine-3-carbonyl)phenyl)propane-1-sulfon-amide] | + (10 ≤ PoC < 30) | > 10000 nM | + (10 > PoC(MKK7)/PoC(MKK4) ≥ 3) | 500 to 1000 nM | + (10 > PoC(JNK1)/PoC(MKK4) ≥ 3) | 1000 to 10000 nM | O (PoC(BRaf)/PoC(MKK4) < 3) |
| CCCS(=O)(=O)Nc1ccc(F)c(C(=O)c2n[nH]c3ncc(-c4ccc(C(=O)NCC(O)CO)cc4)cc23)c1F (stereo not shown) [Example 51l, 4-(3-(2,6-difluoro-3-(propylsulfonamido)benzoyl)-1H-pyrazolo[3,4-b]pyridin-5-yl)-N-(2,3-dihydroxypropyl)benzamide] | +++ (PoC < 1) | 1000 to 10000 nM | +++ (PoC(MKK7)/PoC(MKK4) ≥ 30) | 500 to 1000 nM | +++ (PoC(JNK1)/PoC(MKK4) ≥ 30) | 1000 to 10000 nM | O (PoC(BRaf)/PoC(MKK4) < 3) |
| CCCS(=O)(=O)Nc1ccc(F)c(C(=O)c2n[nH]c3ncc(-c4cccc(N)c4)cc23)c1F [Example 27, N-(3-(5-(3-aminophenyl)-1H-pyrazolo[3,4-b]pyridine-3-carbonyl)-2,4-difluorophenyl)-propane-1-sulfonamide] | ++ (1 ≤ PoC < 10) | 1000 to 10000 nM | +++ (PoC(MKK7)/PoC(MKK4) ≥ 30) | < 500 nM | +++ (PoC(JNK1)/PoC(MKK4) ≥ 30) | 500 to 1000 nM | O (PoC(BRaf)/PoC(MKK4) < 3) |
| CCCS(=O)(=O)Nc1ccc(F)c(C(=O)c2n[nH]c3ncc(-c4cccc(O)c4)cc23)c1F [Example 37, N-(2,4-difluoro-3-(5-(3-hydroxyphenyl)-1H-pyrazo-lo[3,4-b]pyridine-3-carbonyl)phenyl)propane-1-sulfon-amide] | ++ (1 ≤ PoC < 10) | 1000 to 10000 nM | +++ (PoC(MKK7)/PoC(MKK4) ≥ 30) | < 500 nM | ++ (30 > PoC(JNK1)/PoC(MKK4) ≥ 10) | 500 to 1000 nM | + (10 > PoC(BRaf)/PoC(MKK4) ≥ 3) |
| CCCS(=O)(=O)Nc1ccc(F)c(C(=O)c2n[nH]c3ncc(-c4ccccc4F)cc23)c1F [Example 31, N-(2,4-difluoro-3-(5-(2-fluorophenyl)-1H-pyrazo-lo[3,4-b]pyridine-3-carbonyl)phenyl)propane-1-sulfon-amide] | ++ (1 ≤ PoC < 10) | 1000 to 10000 nM | +++ (PoC(MKK7)/PoC(MKK4) ≥ 30) | < 500 nM | +++ (PoC(JNK1)/PoC(MKK4) ≥ 30) | 1000 to 10000 nM | ++ (30 > PoC(BRaf)/PoC(MKK4) ≥ 10) |
| CCCS(=O)(=O)Nc1ccc(F)c(C(=O)c2n[nH]c3ncc(-c4ccc(F)cc4)cc23)c1F [Example 25, N-(2,4-difluoro-3-(5-(4-fluorophenyl)-1H-pyrazo-lo[3,4-b]pyridine-3-carbonyl)-phenyl)propane-1-sulfon-amide] | ++ (1 ≤ PoC < 10) | > 10000 nM | +++ (PoC(MKK7)/PoC(MKK4) ≥ 30) | 500 to 1000 nM | +++ (PoC(JNK1)/PoC(MKK4) ≥ 30) | 1000 to 10000 nM | ++ (30 > PoC(BRaf)/PoC(MKK4) ≥ 10) |
| CCCS(=O)(=O)Nc1ccc(F)c(C(=O)c2n[nH]c3ncc(-c4ccc(N)cc4)cc23)c1F [Example 18, N-(3-(5-(4-aminophenyl)-1H-pyrazolo[3,4-b]pyridine-3-carbonyl)-2,4-difluorophenyl)-propane-1-sulfonamide] | +++ (PoC < 1) | 1000 to 10000 nM | +++ (PoC(MKK7)/PoC(MKK4) ≥ 30) | < 500 nM | +++ (PoC(JNK1)/PoC(MKK4) ≥ 30) | 500 to 1000 nM | ++ (30 > PoC(BRaf)/PoC(MKK4) ≥ 10) |
